According to patent US11370774B2, “Substituted benzofuran, benzopyrrole, benzothiophene, and structurally related complement inhibitors” (BioCryst Pharmaceuticals, Inc., priority 2018, dated 2022):

target: Factor D (Homo sapiens (Human), UniProt P00746); assay: Factor D esterolytic assay (Z-Lys-SBzl substrate, DTNB, 405 nm); format: biochemical; settings: Z-Lys-SBzl 1.29 mM, pH 7.5, 10% DMSO, tested a minimum of three times, read-out: Measured Ki (IC50) Value for Compounds: IC50
Outline: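 Human Factor D ([…]) with 1.29 mM Z-Lys-SBzl in 100 mM HEPES, 500 mM NaCl, pH 7.5, 10% DMSO; substrate added immediately or after room-temperature preincubation. Released thiol reacted with DTNB, rate followed at 405 nm for 600 sec, 690 nm background subtracted. IC50 from percent inhibition versus uninhibited rate, n≥3.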

Sequence of Factor D (P00746 26-253): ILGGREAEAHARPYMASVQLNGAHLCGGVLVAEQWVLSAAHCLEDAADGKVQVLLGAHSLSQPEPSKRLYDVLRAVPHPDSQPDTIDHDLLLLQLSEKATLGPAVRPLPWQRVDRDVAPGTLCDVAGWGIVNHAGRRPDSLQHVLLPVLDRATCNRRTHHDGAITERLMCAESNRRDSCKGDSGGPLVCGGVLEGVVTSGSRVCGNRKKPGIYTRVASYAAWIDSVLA

Compound	IC50 [µM]
NCc1cccc(-c2cc(COc3ccccc3CC(=O)O)cc3c2CCC3)c1 [Compound 177f, 2-(2-((7-(3-(aminomethyl)phenyl)-2,3-dihydro-1H-inden-5-yl)methoxy)phenyl)acetic acid]	< 1
NCc1cccc(-c2cc(COc3ccccc3CC(=O)O)cc3cc(CCO)oc23)c1 [Compound 178g, 2-(2-((7-(3-(aminomethyl)phenyl)-2-(2-hydroxyethyl)benzofuran-5-yl)methoxy)phenyl)acetic acid]	< 1
NCc1cccc(-c2cc(COc3ccccc3CC(=O)O)cc3cc(CCO)oc23)c1F [Compound 179b, 2-(2-((7-(3-(aminomethyl)-2-fluorophenyl)-2-(2-hydroxyethyl)benzofuran-5-yl)methoxy)phenyl)acetic acid]	< 1
Nc1noc2c(-c3cc(COc4ccccc4CC(=O)O)cc4ccoc34)cccc12 [Compound 180e, 2-(2-((7-(3-aminobenzo[d]isoxazol-7-yl)benzofuran-5-yl)methoxy)phenyl)acetic acid]	< 1
NCc1nccc(-c2cc(COc3ccccc3CC(=O)O)cc3c(C(F)(F)F)coc23)c1F [Compound 181d, 2-(2-((7-(2-(aminomethyl)-3-fluoropyridin-4-yl)-3-(trifluoromethyl)benzofuran-5-yl)methoxy)phenyl)acetic acid]	< 1
NCc1cccc(-c2cc(COc3cc(Br)ccc3CC(=O)O)cc3ccoc23)c1 [Compound 182d, 2-(2-((7-(3-(aminomethyl)phenyl)benzofuran-5-yl)methoxy)-4-bromophenyl)acetic acid]	< 1
Nc1ccc(-c2cc(COc3ccccc3CC(=O)O)cc3ccoc23)cc1 [Compound 183c, 2-(2-((7-(4-aminophenyl)benzofuran-5-yl)methoxy)phenyl)acetic acid]	> 10
Nc1cccc(-c2cc(COc3ccccc3CC(=O)O)cc3ccoc23)c1 [Compound 184c, 2-(2-((7-(3-aminophenyl)benzofuran-5-yl)methoxy)phenyl)acetic acid]	1 to 10
NCc1cc(-c2cc(COc3ccccc3CC(=O)O)cc3cc(CCO)oc23)ccn1 [Compound 185c, 2-(2-((7-(2-(aminomethyl)pyridin-4-yl)-2-(2-hydroxyethyl)benzofuran-5-yl)methoxy)phenyl)acetic acid]	< 1
NC(CF)c1cccc(-c2cc(COc3ccccc3CC(=O)O)cc3ccoc23)c1 (stereo not shown) [Compound 186c, 2-(2-((7-(3-(1-amino-2-fluoroethyl)phenyl)benzofuran-5-yl)methoxy)phenyl)acetic acid]	< 1
CCCc1cc2cc(COc3ccccc3CC(=O)O)cc(-c3cccc(CN)c3)c2o1 [Compound 187f, 2-(2-((7-(3-(aminomethyl)phenyl)-2-propylbenzofuran-5-yl)methoxy)phenyl)acetic acid]	< 1
CCCc1cc2cc(COc3ccccc3CC(=O)O)cc(-c3cccc(CN)c3F)c2o1 [Compound 188b, 2-(2-((7-(3-(aminomethyl)-2-fluorophenyl)-2-propylbenzofuran-5-yl)methoxy)phenyl)acetic acid]	< 1
CCCc1cc2cc(COc3ccccc3CC(=O)O)cc(-c3ccnc(CN)c3)c2o1 [Compound 189c, 2-(2-((7-(2-(aminomethyl)pyridin-4-yl)-2-propylbenzofuran-5-yl)methoxy)phenyl)acetic acid]	< 1
CCCc1cc2cc(COc3ccccc3CC(=O)O)cc(-c3ccnc(CN)c3F)c2o1 [Compound 190c, 2-(2-((7-(2-(aminomethyl)-3-fluoropyridin-4-yl)-2-propylbenzofuran-5-yl)methoxy)phenyl)acetic acid]	< 1
Cc1noc2c(-c3cccc(CN)c3)cc(COc3ccccc3CC(=O)O)cc12 [Compound 191h, 2-(2-((7-(3-(aminomethyl)phenyl)-3-methylbenzo[d]isoxazol-5-yl)methoxy)phenyl)acetic acid]	< 1
CS(=O)(=O)n1ccc2c(-c3cccc(CN)c3)cc(COc3ccccc3CC(=O)O)cc21 [Compound 192e, 2-(2-((4-(3-(aminomethyl)phenyl)-1-(methylsulfonyl)-1H-indol-6-yl)methoxy)phenyl)acetic acid]	< 1
NCc1ccc(-c2cc(COc3ccccc3CC(=O)O)cc3ccoc23)cc1 [Compound 193c, 2-(2-((7-(4-(aminomethyl)phenyl)benzofuran-5-yl)methoxy)phenyl)acetic acid]	1 to 10
NCc1cccc(-c2cc(COc3ccccc3CC(=O)O)cc3cc(CNCC4CCCNC4)oc23)c1 (stereo not shown) [Compound 194d, 2-(2-((7-(3-(aminomethyl)phenyl)-2-(((piperidin-3-ylmethyl)amino)methyl)benzofuran-5-yl)methoxy)phenyl)acetic acid]	< 1
NCCCNCc1cc2cc(COc3ccccc3CC(=O)O)cc(-c3cccc(CN)c3)c2o1 [Compound 195d, 2-(2-((7-(3-(aminomethyl)phenyl)-2-(((3-aminopropyl)amino)methyl)benzofuran-5-yl)methoxy)phenyl)acetic acid]	< 1

Compound	IC50 [µM]
NCCNCc1cc2cc(COc3ccccc3CC(=O)O)cc(-c3cccc(CN)c3)c2o1 [Compound 196d, 2-(2-((2-(((2-aminoethyl)amino)methyl)-7-(3-(aminomethyl)phenyl)benzofuran-5-yl)methoxy)phenyl)acetic acid]	< 1
NCc1cccc(-c2cc(COc3cc(N)ccc3CC(=O)O)cc3ccoc23)c1 [Compound 197c, 2-(4-amino-2-((7-(3-(aminomethyl)phenyl)benzofuran-5-yl)methoxy)phenyl)acetic acid]	< 1
CS(=O)(=O)n1ccc2c(-c3cccc(CN)c3F)cc(COc3ccccc3CC(=O)O)cc21 [Compound 198b, 2-(2-((4-(3-(aminomethyl)-2-fluorophenyl)-1-(methylsulfonyl)-1H-indol-6-yl)methoxy)phenyl)acetic acid]	< 1
NCc1cccc(-c2cc(COc3ccccc3CC(=O)O)cc3cc(C(F)(F)F)oc23)c1 [Compound 199f, 2-(2-((7-(3-(aminomethyl)phenyl)-2-(trifluoromethyl)benzofuran-5-yl)methoxy)phenyl)acetic acid]	< 1
CC(C)Cc1cc2cc(COc3ccccc3CC(=O)O)cc(-c3cccc(CN)c3F)c2o1 [Compound 200e, 2-(2-((7-(3-(aminomethyl)-2-fluorophenyl)-2-isobutylbenzofuran-5-yl)methoxy)phenyl)acetic acid]	< 1
CC(C)Cc1cc2cc(COc3ccccc3CC(=O)O)cc(-c3cccc(CN)c3)c2o1 [Compound 201b, 2-(2-((7-(3-(aminomethyl)phenyl)-2-isobutylbenzofuran-5-yl)methoxy)phenyl)acetic acid]	< 1
Cc1ccc(CC(=O)O)c(OCc2cc(-c3cccc(CN)c3)c3occc3c2)c1 [Compound 202c, 2-(2-((7-(3-(aminomethyl)phenyl)benzofuran-5-yl)methoxy)-4-methylphenyl)acetic acid]	< 1
NCc1cccc(-c2cc(COc3cc(C4CC4)ccc3CC(=O)O)cc3ccoc23)c1 [Compound 203c, 2-(2-((7-(3-(aminomethyl)phenyl)benzofuran-5-yl)methoxy)-4-cyclopropylphenyl)acetic acid]	< 1
Nc1ccc2c(-c3cc(COc4ccccc4CC(=O)O)cc4ccoc34)ncnn12 [Compound 204e, 2-(2-((7-(7-aminopyrrolo[2,1-f][1,2,4]triazin-4-yl)benzofuran-5-yl)methoxy)phenyl)acetic acid]	> 10
NCc1cccc(-c2cc(COc3ccc(F)cc3CC(=O)O)cc3ccoc23)c1 [Compound 205d, 2-(2-((7-(3-(aminomethyl)phenyl)benzofuran-5-yl)methoxy)-5-fluorophenyl)acetic acid]	< 1
NCc1ccc(-c2cc(COc3ccccc3CC(=O)O)cc3ccoc23)s1 [Compound 206c, 2-(2-((7-(5-(aminomethyl)thiophen-2-yl)benzofuran-5-yl)methoxy)phenyl)acetic acid]	< 1
NCc1ccc(-c2cc(COc3ccccc3CC(=O)O)cc3ccoc23)o1 [Compound 207c, 2-(2-((7-(5-(aminomethyl)furan-2-yl)benzofuran-5-yl)methoxy)phenyl)acetic acid]	< 1
NCc1cccc(-c2cc(COc3ccc(Br)cc3CC(=O)O)cc3ccoc23)c1 [Compound 208d, 2-(2-((7-(3-(aminomethyl)phenyl)benzofuran-5-yl)methoxy)-5-bromophenyl)acetic acid]	< 1
NCc1cccc(-c2cc(COc3ccc(N)cc3CC(=O)O)cc3ccoc23)c1 [Compound 209c, 2-(5-amino-2-((7-(3-(aminomethyl)phenyl)benzofuran-5-yl)methoxy)phenyl)acetic acid]	< 1
CN1CCC(N(C)Cc2cc3cc(COc4ccccc4CC(=O)O)cc(-c4cccc(CN)c4)c3o2)CC1 [Compound 210c, 2-(2-((7-(3-(aminomethyl)phenyl)-2-((methyl(1-methylpiperidin-4-yl)amino)methyl)benzofuran-5-yl)methoxy)phenyl)acetic acid]	< 1
CS(=O)(=O)n1ccc2c(-c3ccnc(CN)c3)cc(COc3ccccc3CC(=O)O)cc21 [Compound 211c, 2-(2-((4-(2-(aminomethyl)pyridin-4-yl)-1-(methylsulfonyl)-1H-indol-6-yl)methoxy)phenyl)acetic acid]	< 1
NCc1cc(-c2cc(COc3ccccc3CC(=O)O)cc3[nH]ccc23)ccn1 [Compound 211e, 2-(2-((4-(2-(aminomethyl)pyridin-4-yl)-1H-indol-6-yl)methoxy)phenyl)acetic acid]	< 1
NCc1cccc(-c2cc(COc3ccccc3CC(=O)O)cc3c2ccn3S(=O)(=O)C2CC2)c1 [Compound 212e, 2-(2-((4-(3-(aminomethyl)phenyl)-1-(cyclopropylsulfonyl)-1H-indol-6-yl)methoxy)phenyl)acetic acid]	< 1
